As a reminder, the CC50 is the concentration that lowers cell viability or growth by half. In general, IC50 refers to the concentration needed to halve the response being measured.

The text below walks through data of patent US8653115B2, “Heterocyclic non-nucleoside compounds, their preparation, pharmaceutical composition and their use as antiviral agents” (Shanghai Institute of Materia Medica, Chinese Academy of …, priority 2006, dated 2014).

The nature of series [1]: Cytotoxicity to HepG2.2.15 cells, MTT method. It is filed as cell-based. To be noted: human, HepG2.2.15 cells (HBV-transgenic human hepatoma cell line), day 8, 50% death concentration. As for the experimental part: (§1) Hepatitis B virus (HBV) transgenic human hepatoma carcinoma cell, HepG2.2.15 cell line, can secrete hepatitis B virus particles (containing antigen and DNA) into the supernatant when being incubated.
(§2) Under the influence of antiviral drugs, the contents of HBsAg, HBeAg and viral DNA secreted from cells into the supernatant were detected. Compared with the contents of control groups without drugs, the antiviral activity of the sample drugs can be observed. Meanwhile, the cytotoxic effect of the sample drugs can be detected. The value concentration of the sample drugs which caused 50% of the cells dead measured with MTT method was CC50. And the value concentration of the sample drugs which inhibited 50% of the secretion of HBsAg and HBeAg detected by specific ELISA kits and inhibited 50% of the viral DNA replication detected by fluorescent quantitation PCR method was IC50.
(§3) HepG2.2.15 cells were inoculated into a 96-well plate, and the sample drugs were added next day. The medium and the sample drugs with the same concentration were renewed periodically, and the supernatants were collected on the eighth day to be detected. MTT was added to the cells in the 96-well plate, and MTT dissolving solution was added after 4 hours and reacted overnight. OD570 was measured on ELISA the next day. The cytotoxicity of the sample drugs to HepG2.2.15 cells, the effect of the sample drugs on the growth of the cells, and the concentration of the sample drugs (CC50) resulting in 50% of the cells dead were estimated according to the OD values.

Series [2] relates to Hepatitis B virus (HBV) DNA. Put plainly: HBV-DNA replication in HepG2.2.15 supernatant, fluorescent quantification PCR. It counts as cell-based. The following applies: Hepatitis B virus, 192 h; HepG2.2.15 supernatant, day 8, PCR; NA means no obvious biological activity or unable to be calculated. As for the experimental part:
as §1, §2, §3
A suitable amount of supernatant was added to the same volume of virus extract solution, and was boiled after mixed homogenously, then centrifuged at 10000 rpm under room temperature for 5 minutes, and a suitable amount of supernatant was collected for PCR amplification. Meanwhile five HBV-DNA standard samples were set to establish a standard curve. According to the obtained viral DNA replication value, the inhibition ratios of HBV-DNA replication of each sample drug at different concentrations were calculated, and then the half inhibition rates of the sample drugs were calculated to obtain IC50. For those samples that can not be calculated for IC50 values, they can be represented by ICx and list the corresponding concentration values.

Series [3] concerns Duck hepatitis B virus (DHBV). Put plainly: Anti hepatitis B virus activity on animal: DHBV-DNA level in serum of infected ducks, dot blot hybridization. It counts as in vivo, Beijing duck. To be noted: 50 mg/kg oral (intragastric) twice per day for 10 days; for inhibitory effect to DHBV-DNA in duck serum, group analysis (versus virus control group) / inhibitory effect to DHBV-DNA in duck serum, paired analysis (versus T0 of same group): T5, T10, P3. The procedure: The solutions of the sample drugs having required concentration (100 mg/mL) were prepared by using 0.3% sodium carboxymethyl cellulose. Batch number: 00701010
Strong positive serum of Duck hepatitis B virus DNA (DHBV-DNA), collected from Shanghai brown-duck, was store at −70[…].
1-day-old Beijing duck, purchased from Beijing QianJin breeding duck farm.
1-day-old Beijing duck was injected DHBV-DNA positive serum of Shanghai brown-duck via vena cruralis with 0.2 ml/each duck. Blood was taken on the seventh day after infected; serum was separated and stored at −70[…] to be detected.
DHBV infected ducklings were randomly grouped (six ducklings/each group) to carry out drug treatment experiment after 7 days. The administration groups (W28D, W28F, W28M, C37) were set 1 dose group—50 mg/kg respectively, and oral (intragastric) administered twice per day for 10 days (Bid×10). The drugs were replaced with normal saline in virus control group (DHBV). […] Blood was taken from the vena cruralis of the duck after 7 days later of infection, i.e. before drug administration (T0), the fifth day (T5) and the tenth day after drug administration (T10), and the third day after drug withdrawal (P3), then serum was separated and stored at −70[…] to be detected.
The above duck serum was taken and dotted on the membrane to measure the dynamic level of DHBV-DNA in the duck serum. According to the instruction of nick translation kit, dot blot hybridization of duck serum and was carried out using ^32 P labeled DHBV-DNA probe (purchased from Promega Co.). And the dots were shown on the membrane by radioautography. The OD values (the filter was 490 nm) of the dots on the membrane were measured by ELISA. DHBV-DNA density of the serum was calculated and the OD values of the hybridized dot were used as the values of DHBV-DNA level.
a) The mean values (X±SD) of DHBV-DNA OD values of serum at different time of the ducks in each group were calculated, and the DNA levels of serum at different time after drug administration (T5, T10) and the third day after drug withdrawal (P3) for the ducks in each group and were compared with the OD values before administration (T0) of the same group. The values of t1 and P1 were calculated by paired-t test. The significance of the difference was analyzed, and the inhibitory effect of the drugs on the viral infection was estimated.
b). The inhibition ratio (%) to DHBV-DNA of serum at different time after administration (T5, T10) and the third day after drug withdrawal (P3) of the ducks in each group were calculated and illuminated in the figure, and the dynamic state of the inhibition ratios of DHBV-DNA in duck serum in each group were compared.
c) The inhibitions % of DHBV-DNA at different time of the administration group were compared with that at the same time of the virus control group. […] The significance of the difference was analyzed, and the drug action was estimated.

SMILES strings stand for the structures.

In turn, `COc1ccc(-c2nc(C(=O)OC(C)C)c(CC(C)C)s2)cc1` [C37] showed a 50% cytotoxic concentration (CC50) at 8 day in series [1] greater than 33000 nM. For the same compound, the IC50 in series [2] was 30 nM. Also, in series [3], the “inhibitory effect to DHBV-DNA in duck serum, group analysis (versus virus control group)” value (from here on “inhibitory effect … (versus virus control group)”) is reported as “at each time point did not show inhibitory effect to DHBV-DNA” and the “inhibitory effect to DHBV-DNA in duck serum, paired analysis (versus T0 of same group)” value (“inhibitory effect … (versus T0 of same group)” below) is reported as “at each time point did not show inhibitory effect to DHBV-DNA”.

Compound `CC(C)Cc1sc(-c2nccs2)nc1C(=O)OC(C)C` [C310-4] yielded a CC50 at 8 day in series [1] greater than 100000 nM. Besides, in series [2], the IC50 is 810 nM. In series [3], the “inhibitory effect … (versus virus control group)” value was “T10 showed inhibitory effect to DHBV-DNA with statistical significance” and the “inhibitory effect … (versus T0 of same group)” value is on record as “T10 showed inhibitory effect to DHBV-DNA with statistical significance”.

In turn, `CC(C)Cc1sc(-c2nccs2)nc1C(=O)NCc1ccc(F)cc1` [W28F] registered a CC50 at 8 day in series [1] of 43000 nM. Moreover, the half-inhibitory concentration (IC50) in series [2] is 780 nM. For the same compound, the “DHBV-DNA rebound 3 days after drug withdrawal (P3)” value in series [3] (then P3) is given as “rebounded, it did not reach the original level”. Also, in series [3], the “inhibitory effect … (versus virus control group)” value was “T5 and T10 showed inhibitory effect to DHBV-DNA with statistical significance”; the “inhibitory effect … (versus T0 of same group)” value was “T5 and T10 showed inhibitory effect to DHBV-DNA with statistical significance”.

`Cc1cnc(-c2nc(C(=O)OC(C)C)c(CC(C)C)s2)s1` [W28M] displayed a CC50 at 8 day in series [1] greater than 20000 nM. Also, the IC50 in series [2] is less than 80 nM. In series [3], the “inhibitory effect … (versus virus control group)” value is given as “did not show any effect with statistical significance”; the “inhibitory effect … (versus T0 of same group)” value is “T10 and P3 showed inhibitory effect to DHBV-DNA with statistical significance”.
